Where “and” joins values, the source holds several entries; their conditions need not be identical. Equal entries are not always repeated.
Tests used:
V30M-TTR = biological target: T1, V30M-TTR (Homo sapiens, UniProt P02766, V50M); assay: Acid-mediated V30M-TTR fibril formation assay (turbidity at 400 nm); type: biochemical; details: pH 4.4, 72 hours, 37° C.
T1 construct: composed of 127-residue β-sheet-rich subunits; made in house
Protocol: Compounds (5 μL of 1.44 mM solution in DMSO) were added to 495 μL of TTR (7.2 μM, in 10 mM sodium phosphate, 100 mM KCl, 1 mM EDTA, pH 7.0). The mixtures were vortexed and incubated (maintained) for 18 hours at 25° C. […] The solutions were vortexed to evenly distribute any precipitate, and turbidity was measured at 400 nm using a Hewlett Packard model 8453 UV-VIS Spectrophotometer.

[1] = system: WT-TTR cytotoxicity in human IMR-32 neuroblastoma cells; assay: Inhibition of WT-TTR cytotoxicity in IMR-32 cells (resazurin reduction); type: cell-based; details: WT-TTR 8 μM, compounds 2, 4, 6 and 8 μM, 24 hours
Protocol: Cell viability was measured after 24 hours by a resazurin reduction assay.
The human neuroblastoma IMR-32 cell line (CCL-127 ATCC) was maintained in Opti-MEM® medium (Invitrogen), supplemented with 5% FBS, 1 mM Hepes buffer, 2 mM L-glutamine, 100 units/mL penicillin, 100 μg/mL streptomycin and 0.05 mg/mL CaCl2 (complete cell medium). Cells were seeded in black wall, clear bottom, tissue culture treated 96-well plates (Costar) at a density of 6,000 cells/well in complete cell medium and incubated overnight (about 18 hours) at 37° C.
Recombinant WT-TTR purified in the cold was used as the cytotoxic insult. The protein was buffer-exchanged in Hanks' Balanced Salt Solution (HBSS, Mediatech, Manassas, Va.) at 10° C. using a Centriprep® filter device (10 kDa MWCO, Millipore). Compounds (16 mM in DMSO) were diluted 1:1000 with WT-TTR (16 μM in HBSS, filter sterilized) or with HBSS only, vortexed and incubated for 18 hours at 37° C. WT-TTR (16 μM in HBSS) containing the same amount of DMSO was prepared in parallel and incubated under the same conditions.
The medium was removed from the cells and replaced immediately by the TTR/compound mixtures or HBSS previously diluted 1:1 in Opti-MEM® supplemented with 0.8 mg/mL BSA, 2 mM Hepes buffer, 4 mM L-glutamine, 200 units/mL penicillin, 200 μg/mL streptomycin and 0.1 mg/mL CaCl2. The cells were incubated 24 hours at 37° C. Cell viability was evaluated by a resazurin reduction assay.
Briefly, 10 μL of resazurin (500 μM, PBS) was added to each well and fluorescence quantified in a plate reader (Ex/Em 530/590 nm, Tecan Safire 2, Austria) after 1 hour of incubation at 37° C. Cell viability was calculated as percentage of fluorescence relative to cells treated only with vehicle (100% viability) after subtraction of blank fluorescence (wells without cells). Averages and standard errors from 2 independently performed studies, each performed at least in triplicate, were calculated using GraphPrism (San Diego, Calif., US).

WT-TTR = biological target: T2, WT-TTR (Homo sapiens, UniProt P02766); assay: Kinetics of the A2-TTR conjugation reaction (fluorescence); type: binding; details: A2 6 μM
T2 construct: composed of 127-residue β-sheet-rich subunits; made in house; host or cells: E. coli
Protocol: Because the one-chain, one-binding-site TTR tag being created is envisioned to be useful for doing pulse-chase studies in the secretory pathway of eukaryotic cells, the kinetics of WT-TTR modification by A2 in concentrated cell lysate was investigated. […] We added WT-TTR at a final concentration of 2 μM (tetramer) to the HeLa cell lysate (2 μg/μL total protein concentration) to which A2 (6 μM) was added. At 37° C., the conjugate formed with a t50 of 18 minutes, within experimental error of the t50 (19 minutes) of TTR (2 μM) conjugate formation with A2 (6 μM) in phosphate buffer (pH 7).
The covalent TTR modifier A2 (1 μL of 0.6 mM solution in DMSO, final concentration: 6 μM) was added to 90 μL of HeLa cell lysate (final protein concentration: 2 μg/μL) and 10 μL of WT-TTR (20 μM in pH 7.0 phosphate buffer, final concentration: 2 μM). The time-dependent fluorescence change of the conjugate derived from A2 was monitored utilizing a microplate spectrophotometer reader (Gemini SpectraMax®, Molecular Devices, Sunnyvale, Calif.) for 3 hours at 37° C. The fluorescence (λex=328 nm and λem=430 nm) was measured from the bottom of the plate without shaking.

[2] = system: WT-TTR in transfected HeLa cells; assay: Confocal fluorescence imaging of WT-TTR in transfected HeLa cells; type: cell-based, human; details: A2 10 μM, 1 hour
Protocol: Secreted WT-TTR was produced in HeLa cells by transient transfection and the cells were treated with A2 for 1 hour prior to imaging using confocal fluorescence microscopy. The expression of WT-TTR in the HeLa cells after transient transfection was confirmed using western blot analysis, as was the absence of TTR in the empty vector control. […] TTR conjugate fluorescence co-localized with calnexin indirect immunofluorescence, a marker for the endoplasmic reticulum (ER), confirming that WT-TTR within the secretory pathway is being observed. TTR conjugate fluorescence is also expected in the Golgi and in secretory vesicles, explaining why TTR conjugate fluorescence is observed in organelles in addition to the ER.
HeLa cells were plated on cover slips in DMEM containing 10% FBS at 37° C. under 5% CO2 the day before they were transfected with pcDNA3.1(+)-empty vector or pcDNA3.1(+)-WT-TTR using […] (Roche) according to the manufacturer's instructions. After 48 hours, the cells were washed with PBS twice before adding fresh DMEM (without FBS) with A2 (final concentration: 10 μM), and the cells were incubated at 37° C. for 1 hour. After two washes with PBS, the cells were fixed at 25° C. for 15 minutes with 3.7% (w/v) paraformaldehyde in PBS. […]

Structure (SMILES)	% Fibril Formation 7.2 μM (V30M-TTR) (V30M-TTR; compound 7.2 μM) [%]	% Fibril Formation […] (V30M-TTR) (V30M-TTR; compound […]) [%]	inhibition of WT-TTR cytotoxicity to IMR-32 cells (in words) [1]	t50 of conjugate formation in phosphate buffer (pH 7) (WT-TTR; TTR 2 μM) [minutes]	t50 of conjugate formation in HeLa cell lysate (WT-TTR; WT-TTR 2 μM, lysate 2 μg/μL, 37° C.)	conjugate fluorescence in HeLa cells expressing WT-TTR [2]
Cc1cc(/C=C/c2cccc(C(=O)Sc3ccccc3)c2)cc(C)c1O [Compound 2, (E)-S-phenyl 3-(4-hydroxy-3,5-dimethylstyryl)benzothioate]	3	34	clearly and dose-dependently inhibits IMR-32 cytotoxicity	–	–	–
Cc1cc(/C=C/c2cccc(C(=O)Oc3ccc(F)cc3)c2)cc(C)c1O [Compound 4, (E)-4-fluorophenyl 3-(4-hydroxy-3,5-dimethylstyryl)benzoate]	–	–	clearly and dose-dependently inhibits IMR-32 cytotoxicity	–	–	–
Cc1cc(/C=C/c2cc(C(=O)Sc3ccc(F)cc3)cc(N(C)C)c2)cc(C)c1O [Compound A2, (E)-S-4-fluorophenyl 3-(dimethylamino)-5-(4-hydroxy-3,5-dimethylstyryl)-benzothioate]	–	–	–	19	18 min and 20 min	strong conjugate fluorescence

Source: patent US8703815B2, “Small molecules that covalently modify transthyretin” (The Scripps Research Institute, priority 2009, dated 2014)
